Measured values reported in the supplement of paper PMC6045584.

Compound: O=c1[nH]cc(F)c(=O)[nH]1 [FLUOROURACIL]
Experiment: area under dose-response curve of surviving fraction (unscaled, Aref=0) (surviving fraction x log10(nM)); higher = more resistant
Conditions: exposure time: 5 days; dose range 0.5-1000 nM
Summary of the method: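 Tumour cell lines in 384-well plates were exposed for five days to eight inhibitor concentrations from 0.5 to 1000 nM. Viability was read by CellTiter-Glo luminescence, normalised to DMSO-only wells, in three screens per line. Dose-response survival curves were fitted to surviving fractions by 3-parameter logistic regression in the drc R package. Area under the curve is the unscaled activity area (Aref = 0) over log10 dose.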

Test System | area under dose-response curve
22RV1 PROSTATE | 3.25
93VU HEADNECK | 3.04
A549 LUNG | 3.27
BT549 BREAST | 2.98
C33A CERVIX | 3.66
CADOES1 SOFT TISSUE | 3.05
CAL51 BREAST | 3.05
CAL72 BONE | 3.25
CAL120 BREAST | 3.16
CASKI CERVIX | 3.05
COLO320DM LARGE INTESTINE | 2.87
DU4475 BREAST | 3.34
H23 LUNG | 3.28
HCC78 LUNG | 3.24
HCC1395 BREAST | 3.24
HCC1806 BREAST | 3.09
HCC1954 BREAST | 2.96
HCT15 LARGE INTESTINE | 2.73
HELA CERVIX | 3.55
HOS BONE | 3.19

Test System | area under dose-response curve
HOSMNG BONE | 3.41
HSSYII SYNOVIAL | 3.07
HT1080 SOFT TISSUE | 3.06
HU09 BONE | 3.06
HUO3N1 BONE | 3.28
JIMT1 BREAST | 3.03
KPD BONE | 3.27
LM7 BONE | 2.96
MCF7 BREAST | 2.99
MDAMB134 BREAST | 2.74
MDAMB231 BREAST | 3.13
MDAMB361 BREAST | 2.28
MDAMB436 BREAST | 2.81
MDAMB453 BREAST | 3.14
MDAMB468 BREAST | 2.83
MFM223 BREAST | 2.92
MG63 BONE | 3.26
MHM BONE | 3.46
PCI30 HEADNECK | 3.3
RDES SOFT TISSUE | 3.48

Test System | area under dose-response curve
S68 BREAST | 2.83
SAOS2 BONE | 2.91
SCC003 HEADNECK | 3.08
SCC36 HEADNECK | 2.79
SCC47 HEADNECK | 3.44
SCC90 HEADNECK | 3.17
SG27 HEADNECK | 3.48
SG43 HEADNECK | 3.27
SKBR3 BREAST | 2.95
SNU475 LIVER | 3.03
SUM44 BREAST | 3.15
SUM149 BREAST | 2.9
SUM159 BREAST | 3.29
SYO1 SYNOVIAL | 2.82
T47D BREAST | 3.16
U2OS BONE | 3.18
VP229 BREAST | 2.98
YAMATO SYNOVIAL | 3
